From US20100261753A1, “METHODS FOR PREVENTING AND/OR TREATING DEGENERATIVE DISORDERS OF THE CENTRAL NERVOUS SYSTEM” (AMICUS THERAPEUTICS, INC., priority 2009, published 2010)
Counter-ions that a name gives are not always drawn. Like-named read-outs stand apart in the source and are kept apart here.

Key:
[1] = Blood brain barrier penetration after a single p.o. dose in mice; type: in vivo, mice (C57BL/6); settings: single 30 mg/kg (free base equivalent) p.o.
Protocol: For this purpose, 8-week old wild-type male mice (C57BL/6) were administered a single 30 mg/kg (free base equivalent) p.o. dose of reference or test compound by gavage (n=3 mice per time point). Dosing solutions were prepared in water. After dosing, mice were euthanized with CO2 at the following time points: 0-, 0.5-, 1-, and 4-hour post-dose. […] Similarly, brains were collected from each mouse. Plasma was derived by spinning whole blood at 2700 g for 10 minutes at 4° C. followed by storage on dry ice. Whole brains were washed in cold PBS to remove contaminating blood, blotted dry, flash frozen on dry ice, and ultimately stored at −80° C. until analysis. To prepare brain samples for analysis, 50-100 mg of tissue was homogenized in […]. Samples were then clarified by centrifugation. Next, 25 μl of the brain homogenate supernatant or 25 μl of plasma were combined with 25 μl of acetonitrile:water (95/5). […] Between 20 and 30 μl sample was injected for analysis. […] When Compound B was analyzed, Compound A was used as internal standard (150.1/130.1). For calculating drug concentrations, raw data for plasma (ng/mL) and brain (ng/g) was converted to nM using the molecular weight of respective compounds and assuming 1 g of tissue is equivalent to 1 mL volume. Concentration as a function of time was plotted in GraphPad Prism version 4.02.

Rat pharmacokinetics = type: in vivo, Sprague-Dawley rats
Protocol: Pharmacokinetic (PK) data was obtained in rats to assess the bioavailability of test compound. In particular, the following PK parameters were calculated: bioavailability as measured by area under the Concentration/Time curve (AUC), fraction of dose available (% F; further defined below), clearance (CL), volume of distribution (Vd), and half-life (t½). For this purpose, 8-week old Sprague-Dawley male rats were given either a single intravenous (IV) dose equivalent to 3 mg/kg of free base or single escalating p.o. (gavage) doses of test compound equivalent to 10, 30, and 100 mg/kg of free base. Three rats were used per dosing group. Blood was collected over a 24-hr period. The time points for blood collection after intravenous administration were: 0, 2.5, 5, 10, 15, 30, 45 min, 1, 2, 4, 8, 12, and 24 hrs; time points for blood collection after p.o. administrations were: 0, 5, 15, 30, 45 min, 1, 2, 3, 4, 8, 12, and 24 hrs. Plasma samples were analyzed for compound levels by LC-MS/MS at PPD. Raw data was analyzed by non-compartmental analysis in Win-nonLin to calculate Vd, % F, CL, and […].

GCase = target: T1, GCase (Homo sapiens, UniProt P04062); assay: GCase activity enhancement (EC50, Emax; Table 2B); type: cell-based
T1 sequence (P04062 40-536): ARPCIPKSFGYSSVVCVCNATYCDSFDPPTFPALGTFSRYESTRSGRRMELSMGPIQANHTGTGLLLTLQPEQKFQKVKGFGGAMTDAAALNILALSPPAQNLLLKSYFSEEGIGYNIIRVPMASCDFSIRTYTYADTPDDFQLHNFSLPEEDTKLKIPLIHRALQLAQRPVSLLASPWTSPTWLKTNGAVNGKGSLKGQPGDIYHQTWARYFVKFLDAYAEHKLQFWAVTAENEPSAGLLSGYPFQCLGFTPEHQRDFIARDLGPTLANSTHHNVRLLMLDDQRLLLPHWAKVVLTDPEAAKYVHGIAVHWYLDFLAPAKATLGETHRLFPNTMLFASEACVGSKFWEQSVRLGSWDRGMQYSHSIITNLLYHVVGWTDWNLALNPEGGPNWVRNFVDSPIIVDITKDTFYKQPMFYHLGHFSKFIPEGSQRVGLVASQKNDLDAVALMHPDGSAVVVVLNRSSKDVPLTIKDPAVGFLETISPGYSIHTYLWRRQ

lysosomal GCase = target: T2, lysosomal GCase (Homo sapiens, UniProt P04062); assay: In situ lysosomal GCase inhibition and washout assay in fibroblasts from a normal subject; type: cell-based; settings: for IC50: normal fibroblasts, 16-24 h incubation, PFBFDβGlu substrate; for In Situ Washout: washout time after treatment at IC90, single exponential fit
T2 construct: lysosomal GCase activity was assayed in situ using fibroblasts established from a normal subject; endogenous in cells; host or cells: fibroblasts established from a normal subject
T2 sequence (P04062 40-536): T1 sequence (P04062 40-536)
Protocol: For the dose-response assays, cells were incubated with the in situ substrate 5-(pentafluorobenzoylamino)fluorescein di-β-D-glucopyranoside (PFBFDβGlu) for 1 hour and subsequently lysed to determine the extent of substrate hydrolysis in the presence of compound. […] Inhibition was determined as the ratio of activity in the presence of compound to that in the absence of compound. […] Cells were washed extensively and incubated in drug-free medium to allow net compound efflux from cells. Cells were then tested for lysosomal GCase activity at 2 hour intervals over a total period of 8 hours following compound removal. The increase in activity over time was fitted with a single exponential function to determine the compound's washout time.

[2] = male, Sprague-Dawley, plasma, IV, 3 mg/kg free base

Compound: O[C@@H]1CNCC(CF)[C@H]1O (stereo in doubt) [Compound A, (3R,4R,5R)-5-(fluoromethyl)piperidine-3,4-diol]
- blood brain barrier crossing ([1]; compared to IFG): crossed the blood brain barrier more readily as compared to IFG
- CL (Rat pharmacokinetics; PO, 30 mg/kg free base): 66.82 ± 8.48 mL/min/kg
- VD (Rat pharmacokinetics; PO, 30 mg/kg free base): 13.532 ± 3.291 L/kg
- CL (Rat pharmacokinetics; PO, 100 mg/kg free base): 56.55 ± 3.48 mL/min/kg
- VD (Rat pharmacokinetics; PO, 100 mg/kg free base): 13.101 ± 1.518 L/kg
- Cmax (Rat pharmacokinetics; [2]): 7270 ± 139 ng/mL
- Vd (Rat pharmacokinetics; [2]): 3.48 ± 0.232 L/kg
- clearance (Rat pharmacokinetics; [2]): 27.8 mL/min/kg
- AUC(0-t) (Rat pharmacokinetics; male, Sprague-Dawley, plasma, IV, 3 mg/kg free base (3.72 mg/kg salt)): 1800 ± 42.7 ng·h/mL
- half-life (Rat pharmacokinetics; male, Sprague-Dawley, plasma, IV, 3 mg/kg free base, read-out: t1/2 (converted)): 1.4 ± 0.1 h
- Cmax (Rat pharmacokinetics; male, Sprague-Dawley, plasma, PO, 10 mg/kg free base): 1290 ± 271 ng/mL
- AUC(0-t) (Rat pharmacokinetics; male, Sprague-Dawley, plasma, PO, 10 mg/kg free base (12.4 mg/kg salt)): 2980 ± 228 ng·h/mL
- bioavailability (Rat pharmacokinetics; male, Sprague-Dawley, plasma, PO, 10 mg/kg free base, read-out: % F): 50 ± 3.8%
- half-life (Rat pharmacokinetics; male, Sprague-Dawley, plasma, PO, 10 mg/kg free base, read-out: t1/2 (converted)): 1.2 ± 0.4 h
- Cmax (Rat pharmacokinetics; male, Sprague-Dawley, plasma, PO, 30 mg/kg free base): 2870 ± 355 ng/mL
- AUC(0-t) (Rat pharmacokinetics; male, Sprague-Dawley, plasma, PO, 30 mg/kg free base (37.2 mg/kg salt)): 8250 ± 388 ng·h/mL
- bioavailability (Rat pharmacokinetics; male, Sprague-Dawley, plasma, PO, 30 mg/kg free base, read-out: % F): 46 ± 2.5%
- half-life (Rat pharmacokinetics; male, Sprague-Dawley, plasma, PO, 30 mg/kg free base, read-out: t1/2 (converted)): 2.3 ± 0.3 h
- Cmax (Rat pharmacokinetics; male, Sprague-Dawley, plasma, PO, 100 mg/kg free base): 9390 ± 742 ng/mL
- AUC(0-t) (Rat pharmacokinetics; male, Sprague-Dawley, plasma, PO, 100 mg/kg free base (124 mg/kg salt)): 29600 ± 1750 ng·h/mL
- bioavailability (Rat pharmacokinetics; male, Sprague-Dawley, plasma, PO, 100 mg/kg free base, read-out: % F): 49 ± 2.7%
- half-life (Rat pharmacokinetics; male, Sprague-Dawley, plasma, PO, 100 mg/kg free base, read-out: t1/2 (converted)): 2.6 ± 0.1 h

Compound: O[C@@H]1CNCC(CF)[C@H]1O (stereo in doubt) [Compound A-HCl, (3R,4R,5R)-5-(fluoromethyl)piperidine-3,4-diol hydrochloride]
- effect on GCase activity (GCase): concentration-dependent increase in GCase activity
- enhancement of enzyme activity compared to IFG-tartrate (GCase): enhanced enzyme activity to the same maximum level at much lower concentration
- bioavailability (Rat pharmacokinetics; male, Sprague-Dawley, plasma, po, read-out: oral bioavailability): ~50%
- half-life (Rat pharmacokinetics; male, Sprague-Dawley, plasma, read-out: half-life): 1 to 2.5 h
- IC50 (lysosomal GCase): 17 ± 8 nM
- In Situ Washout (lysosomal GCase): 6.6 ± 0.12 h

Compound: O[C@@H]1[C@@H](CCl)CNC[C@H]1O [Compound B, (3R,4R,5S)-5-(chloromethyl)piperidine-3,4-diol]
- EC50 (GCase): 9.6 ± 1 nM
- Emax (GCase): 104 ± 3.4%
- effect on GCase activity (GCase): concentration-dependent increase in GCase activity
- enhancement of enzyme activity compared to IFG-tartrate (GCase): enhanced enzyme activity to the same maximum level at much lower concentration
- brain levels ([1]; compared to hydrochloride salt form of Compound A): even higher levels of Compound B were detected in brain
- IC50 (lysosomal GCase): 121 ± 7 nM
- In Situ Washout (lysosomal GCase): 2.9 ± 0.22 h
